Measurements: PMC7496286, “The Selectivity of Fosfosal for STAT5b over STAT5a is Mediated by Arg566 in the Linker Domain” (Chembiochem, 2020)

Key:
[1] = target: T1, STAT5b-7M (Arg566Trp/Gln636Pro/Met639Asn/Phe640Leu/Met644Lys/Asn664Ser/Tyr679Phe) (Homo sapiens, UniProt P51692, F640L/M639N/M644K/N664S/Q636P/R566W/Y679F); assay: FP-based competitive binding assay, STAT5b-7M
T1 construct: His; made in house
T1 sequence (P51692 1-787 R566W/Q636P/M639N/F640L/M644K/N664S/Y679F): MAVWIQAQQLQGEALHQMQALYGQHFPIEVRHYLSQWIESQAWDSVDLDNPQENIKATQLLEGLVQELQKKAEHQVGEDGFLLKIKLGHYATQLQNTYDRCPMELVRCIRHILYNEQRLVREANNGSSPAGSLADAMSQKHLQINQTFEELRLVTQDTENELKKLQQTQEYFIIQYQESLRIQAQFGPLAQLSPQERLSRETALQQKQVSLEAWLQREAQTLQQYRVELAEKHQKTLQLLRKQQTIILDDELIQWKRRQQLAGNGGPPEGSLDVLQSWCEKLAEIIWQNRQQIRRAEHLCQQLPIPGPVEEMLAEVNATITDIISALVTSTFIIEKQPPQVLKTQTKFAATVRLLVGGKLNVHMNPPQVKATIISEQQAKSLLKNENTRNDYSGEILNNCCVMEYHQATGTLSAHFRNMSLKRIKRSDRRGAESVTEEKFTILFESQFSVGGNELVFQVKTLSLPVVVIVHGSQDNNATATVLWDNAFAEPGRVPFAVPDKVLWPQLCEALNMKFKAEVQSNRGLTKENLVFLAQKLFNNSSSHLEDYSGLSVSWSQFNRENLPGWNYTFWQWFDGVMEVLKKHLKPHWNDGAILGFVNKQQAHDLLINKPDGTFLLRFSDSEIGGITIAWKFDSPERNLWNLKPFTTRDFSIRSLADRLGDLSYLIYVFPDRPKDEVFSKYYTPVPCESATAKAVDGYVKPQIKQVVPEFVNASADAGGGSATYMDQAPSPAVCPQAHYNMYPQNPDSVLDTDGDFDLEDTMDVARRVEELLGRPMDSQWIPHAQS
Procedure: (§1) Fluorescence polarization assays
(§2) The ability of test compounds to displace 5-carboxyfluorescein-GY(PO3H2)LVLDKW (final concentration: 10 nM) from the SH2 domain of STAT5a/b proteins was analyzed. Proteins […]
(§3) was applied in dilution series comprising the following concentrations: 0.024 – 200 µM […]
(§4) and 0.146 – 600 µM (STAT5b Arg566Glu), respectively. The assays were performed in buffer containing 10 mM Tris, 50 mM NaCl, 1 mM DTT, 1 mM EDTA and 0.1% (v/v) NP-40. Fosfosal was dissolved in DMSO. STAT5a/b proteins and fosfosal were incubated at room temperature for 1 h before adding peptide. Samples were transferred to 384-well microtiter plates and fluorescence polarization was read after a further 1 h incubation time. All measurements were performed in triplicate (n=3), except for STAT5b (n=6) and STAT5a Trp566Arg (n=4). Percent binding was calculated based on a logarithmic curve fit using OriginPro 8G software. IC50 values were converted to Ki values using the published equation.[4] […]
(§5) [4] Z. Nikolovska-Coleska, R. Wang, X. Fang, H. Pan, Y. Tomita, P. Li, P. P. Roller, K.
(§6) Krajewski, N. G. Saito, J. A. Stuckey, S. Wang, Anal. Biochem. 2004, 332, 261-273.

[2] = target: T2, STAT5a Trp566Arg/Lys644Met (Homo sapiens, UniProt P42229, K644M/W566R); assay: FP-based competitive binding assay, STAT5a Trp566Arg/Lys644Met
T2 construct: His; made in house
T2 sequence (P42229 1-794 W566R/K644M): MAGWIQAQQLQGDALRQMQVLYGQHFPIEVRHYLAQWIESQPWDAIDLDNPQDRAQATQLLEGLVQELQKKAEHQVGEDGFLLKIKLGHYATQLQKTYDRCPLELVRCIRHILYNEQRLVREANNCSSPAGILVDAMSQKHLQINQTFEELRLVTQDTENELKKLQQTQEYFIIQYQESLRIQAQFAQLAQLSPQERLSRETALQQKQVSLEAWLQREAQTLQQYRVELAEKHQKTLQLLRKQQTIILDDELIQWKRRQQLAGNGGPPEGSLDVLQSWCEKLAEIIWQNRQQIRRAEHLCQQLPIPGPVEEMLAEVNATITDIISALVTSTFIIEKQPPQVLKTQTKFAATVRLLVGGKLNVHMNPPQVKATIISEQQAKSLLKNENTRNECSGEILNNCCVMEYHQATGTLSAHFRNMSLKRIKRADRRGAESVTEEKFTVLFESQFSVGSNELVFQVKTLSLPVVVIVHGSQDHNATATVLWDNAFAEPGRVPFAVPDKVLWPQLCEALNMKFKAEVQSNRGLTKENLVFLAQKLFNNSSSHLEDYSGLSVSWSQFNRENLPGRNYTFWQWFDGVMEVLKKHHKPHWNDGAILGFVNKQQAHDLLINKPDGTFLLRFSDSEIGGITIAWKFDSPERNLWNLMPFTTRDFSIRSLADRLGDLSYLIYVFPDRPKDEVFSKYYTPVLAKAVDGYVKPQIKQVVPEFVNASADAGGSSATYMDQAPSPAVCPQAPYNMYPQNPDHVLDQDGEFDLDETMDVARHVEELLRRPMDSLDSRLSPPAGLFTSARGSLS
Procedure: as §1, §2, §3, §4, §5, §6

Structure (SMILES) | Kd [1] | Kd [2] | IC50 ([1]; STAT5b-7M) | Ki ([1]; STAT5b-7M, Ki calculated from IC50) | IC50 ([2]; STAT5a Trp566Arg/Lys644Met) | Ki ([2]; STAT5a Trp566Arg/Lys644Met, Ki calculated from IC50)
CC(C)C[C@H](NC(=O)[C@H](Cc1ccc(OP(=O)(O)O)cc1)NC(=O)CNC(=O)c1ccc2c(c1)C(=O)OC21c2ccc(O)cc2Oc2cc(O)ccc21)C(=O)N[C@H](C(=O)N[C@@H](CC(C)C)C(=O)N[C@@H](CC(=O)O)C(=O)N[C@@H](CCCCN)C(=O)N[C@@H](Cc1c[nH]c2ccccc12)C(=O)O)C(C)C [5-carboxyfluorescein-GY(PO3H2)LVLDKW] | 0.246 µM | 0.08 µM | – | – | – | –
O=C(O)c1ccccc1OP(=O)(O)O [fosfosal, O‐phosphorylated salicylic acid] | – | – | 379 ± 7 µM | 189 ± 3 µM | 24.5 ± 1.4 µM | 12.3 ± 0.6 µM
